One assay concerns cultured liver cells. Put plainly: Glucose production from cultured rat hepatocytes (basal and glucagon stimulated glycogenolysis). It is filed as cell-based. To be noted: Hepatocyte; for activity at 50 µM / activity at 32 µM: 70 min, glucose in medium after 70 minutes; for activity at 50 µM: test compound 50µM; for activity at 32 µM: test compound 32µM. The method, then: During the last 24 hours, the hepatocytes were cultured in the presence of high levels of insulin (5 nM) and glucose (15 mM), which result in the incorporation of glucose into glycogen. Therefore, at the time of the experiment, the cells mimic livers from fed animals. Experiments were initiated after 72 hours of culture by 2 times wash of cells and addition of a 20 mM HEPES experimental buffer including balanced salts, but without glucose. The test compound was added simultaneously with the experimental buffer. To some cultures, glucagon (0.5 nM) was added after 10 minutes in order to stimulate glucose production from liver cells. The glucose released into the media, reflecting the glucose production of the liver cells, was measured 70 minutes after the start of the experiment and standardized to cellular DNA content.

The target in another assay is Phosphorylase. To be noted: read-out: I.C.50 Phosphorylase; phosphorylase purchased from Sigma or extracted from rat livers.
The target of a further assay is T1, liver α-1,6-glucosidase (Homo sapiens, UniProt P35573).
T1 construct: from tissue
Put plainly: Glycogen debranching enzyme activity (Brown and Brown method). It is filed as biochemical. To be noted: read-out: I.C.50 liver α-1,6-glucosidase.

The mark [1] stands for this setting: relative to basal glucose production (no addition with glucagon = 283%), read-out: Glucose production With glucagon (0.5nM).
[2] abbreviates: basal, without glucagon, read-out: I.C.50 Liver cell glucose production: Basal.
Where [3] appears, read: read-out: I.C.50 Liver cell glucose production: Glucagon stimulated.

Where two headings read alike, the source gives them in different places.

T1 sequence (P35573 whole entry): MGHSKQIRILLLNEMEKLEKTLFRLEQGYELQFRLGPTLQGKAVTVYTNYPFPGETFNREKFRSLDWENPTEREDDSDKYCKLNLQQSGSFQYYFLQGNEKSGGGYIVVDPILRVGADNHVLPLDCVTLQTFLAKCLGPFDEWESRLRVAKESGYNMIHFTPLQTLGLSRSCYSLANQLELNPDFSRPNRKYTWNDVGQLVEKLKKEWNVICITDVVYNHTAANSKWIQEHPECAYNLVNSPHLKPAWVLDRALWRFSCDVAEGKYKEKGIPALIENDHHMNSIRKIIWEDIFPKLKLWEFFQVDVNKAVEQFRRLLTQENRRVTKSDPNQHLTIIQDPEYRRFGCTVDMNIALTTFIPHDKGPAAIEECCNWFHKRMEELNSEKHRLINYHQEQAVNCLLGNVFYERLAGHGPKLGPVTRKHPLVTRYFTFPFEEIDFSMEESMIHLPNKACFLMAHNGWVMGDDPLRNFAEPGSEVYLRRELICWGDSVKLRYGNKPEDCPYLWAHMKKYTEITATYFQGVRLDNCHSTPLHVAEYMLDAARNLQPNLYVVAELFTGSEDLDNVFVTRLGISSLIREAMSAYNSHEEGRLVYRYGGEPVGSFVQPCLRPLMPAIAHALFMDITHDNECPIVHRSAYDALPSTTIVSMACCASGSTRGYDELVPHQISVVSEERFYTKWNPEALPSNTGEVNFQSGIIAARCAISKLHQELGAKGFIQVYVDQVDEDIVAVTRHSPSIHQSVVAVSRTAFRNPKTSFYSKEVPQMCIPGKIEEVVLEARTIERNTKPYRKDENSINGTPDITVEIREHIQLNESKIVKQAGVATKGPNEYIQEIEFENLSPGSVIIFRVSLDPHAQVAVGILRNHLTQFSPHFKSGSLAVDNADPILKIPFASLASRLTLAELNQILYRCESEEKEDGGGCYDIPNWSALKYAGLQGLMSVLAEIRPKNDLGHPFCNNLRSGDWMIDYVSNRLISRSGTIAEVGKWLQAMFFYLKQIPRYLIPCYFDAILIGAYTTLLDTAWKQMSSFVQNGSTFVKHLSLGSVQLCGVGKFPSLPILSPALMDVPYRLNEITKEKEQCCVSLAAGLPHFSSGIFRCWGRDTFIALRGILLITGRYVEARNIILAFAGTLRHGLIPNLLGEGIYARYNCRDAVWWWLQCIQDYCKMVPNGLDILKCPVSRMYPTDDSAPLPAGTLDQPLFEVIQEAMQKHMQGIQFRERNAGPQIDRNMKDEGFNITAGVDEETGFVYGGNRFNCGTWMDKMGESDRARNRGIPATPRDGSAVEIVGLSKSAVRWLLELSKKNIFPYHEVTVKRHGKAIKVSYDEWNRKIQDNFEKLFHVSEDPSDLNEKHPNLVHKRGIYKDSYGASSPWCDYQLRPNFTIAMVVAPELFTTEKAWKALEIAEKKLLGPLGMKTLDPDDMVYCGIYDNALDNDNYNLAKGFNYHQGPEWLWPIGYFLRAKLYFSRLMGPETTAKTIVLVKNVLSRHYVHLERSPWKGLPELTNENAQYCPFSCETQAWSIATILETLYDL

`OC[C@H]1NC[C@H](O)[C@@H](O)[C@@H]1O` [1-deoxynojirimycin]: the activity at 50 µM in the assay with cultured liver cells (relative to basal glucose production (no addition = 100 %), read-out: Glucose production Without glucagon) is 89%; in the assay on cultured liver cells (setting [1]), 237%. In addition, the IC50 in the assay on cultured liver cells (setting [2]) is greater than 100000 nM; with cultured liver cells (setting [3]), greater than 100000 nM; at Phosphorylase, greater than 200000 nM; on liver α-1,6-glucosidase, 2400 nM.

In the case of `OC[C@H]1CNC[C@@H](O)[C@@H]1O` [Example 1, (3R,4R,5R)-3,4-dihydroxy-5-hydroxymethylpiperidine], the activity at 32 µM was determined as 17% in the assay on cultured liver cells (relative to basal glucose production (no addition = 100 %), standardized to DNA, read-out: Glucose production Without glucagon) and 32% with cultured liver cells (setting [1]). Further, the results for the IC50 in the assay with cultured liver cells (setting [2]), in the assay with cultured liver cells (setting [3]) and at liver α-1,6-glucosidase were 1300 nM, 1600 nM and 77000 nM, respectively.

These data come from patent publication EP0749423B1, “PIPERIDINES AND PYRROLIDINES” (NOVO NORDISK A/S, priority 1994, dated 1995).
